Test results as given in paper PMC5146859, “Phase 1/2 study of pacritinib, a next generation JAK2/FLT3 inhibitor, in myelofibrosis or other myeloid malignancies” (Journal of Hematology & Oncology, 2016).

Test system: patients with advanced myeloid malignancies
Assay: Phase 1 safety: adverse events (NCIC-CTCAE version 3.0)
Format: in vivo, human
Experimental: At screening/baseline, patients underwent a medical history, physical examination, vital sign assessment, ECOG PS assessment, electrocardiogram, and assessment of hematologic parameters and blood chemistry. Hematology/blood chemistry, physical examinations, and vital sign assessments were performed throughout treatment. Toxicity was assessed using the National Cancer Institute Common Terminology Criteria for Adverse Events (NCIC-CTCAE), version 3.0, with relationship to treatment assigned by the investigator and were recorded from the first dose of pacritinib until 30 days after the last dose. Bone marrow biopsy and/or aspirate samples were drawn at baseline, on day 1 of cycle 4 and cycle 10, as clinically indicated, and at the termination visit. Disease response and progression were determined using the relevant International Working Group (IWG) criteria.
The efficacy-evaluable population included those patients with a baseline and corresponding follow-up value. The safety population included all enrolled patients who received ≥1 dose of pacritinib.

C1=C/COCc2cc(ccc2OCCN2CCCC2)Nc2nccc(n2)-c2cccc(c2)COC/1 [pacritinib, 11-(2-pyrrolidin-1-yl-ethoxy)-14,19-dioxa-5,7,26-triaza-tetracyclo[19.3.1.1(2,6). 1(8,12)]heptacosa-1(25),2(26),3,5,8,10,12(27),16,21,23-decaene]
0 n (%): Treatment-emergent AE: Dehydration (phase 1, 200 mg, n = 9) | Treatment-emergent AE: Dyspnea (phase 1, 200 mg, n = 9) | Treatment-emergent AE: Hyperuricemia (phase 1, 200 mg, n = 9) | Treatment-emergent AE: Neutropenia (phase 1, 200 mg, n = 9) | Treatment-emergent AE: Pain in extremity (phase 1, 200 mg, n = 9) | Treatment-emergent AE: Petechiae (phase 1, 200 mg, n = 9) | Treatment-emergent AE: Thrombocytopenia (phase 1, 200 mg, n = 9) | Treatment-emergent AE: Asthenia (phase 1, 300 mg, n = 6) | Treatment-emergent AE: Cardiac murmur (phase 1, 300 mg, n = 6) | Treatment-emergent AE: Chills (phase 1, 300 mg, n = 6) | Treatment-emergent AE: Decreased appetite (phase 1, 300 mg, n = 6) | Treatment-emergent AE: Dehydration (phase 1, 300 mg, n = 6) | Treatment-emergent AE: Dyspnea (phase 1, 300 mg, n = 6) | Treatment-emergent AE: Edema peripheral (phase 1, 300 mg, n = 6) | Treatment-emergent AE: Hyperuricemia (phase 1, 300 mg, n = 6) | Treatment-emergent AE: Night sweats (phase 1, 300 mg, n = 6) | Treatment-emergent AE: Petechiae (phase 1, 300 mg, n = 6) | Treatment-emergent AE: Skin lesion (phase 1, 300 mg, n = 6) | Treatment-emergent AE: Asthenia (phase 1, 400 mg, n = 6) | Treatment-emergent AE: Hyperuricemia (phase 1, 400 mg, n = 6) | Treatment-emergent AE: Pain in extremity (phase 1, 400 mg, n = 6)
2 (33.3) n (%): Treatment-emergent AE: Epistaxis (phase 1, 300 mg, n = 6) | Treatment-emergent AE: Fatigue (phase 1, 300 mg, n = 6) | Treatment-emergent AE: Vomiting (phase 1, 300 mg, n = 6) | Treatment-emergent AE: Abdominal pain (phase 1, 400 mg, n = 6) | Treatment-emergent AE: Anemia (phase 1, 400 mg, n = 6) | Treatment-emergent AE: Back pain (phase 1, 400 mg, n = 6) | Treatment-emergent AE: Constipation (phase 1, 400 mg, n = 6) | Treatment-emergent AE: Dehydration (phase 1, 400 mg, n = 6) | Treatment-emergent AE: Dyspnea (phase 1, 400 mg, n = 6) | Treatment-emergent AE: Edema peripheral (phase 1, 400 mg, n = 6) | Treatment-emergent AE: Fatigue (phase 1, 400 mg, n = 6) | Treatment-emergent AE: Night sweats (phase 1, 400 mg, n = 6)
3 (50.0) n (%): Treatment-emergent AE: Diarrhea (phase 1, 300 mg, n = 6) | Treatment-emergent AE: Nausea (phase 1, 300 mg, n = 6) | Treatment-emergent AE: Abdominal distension (phase 1, 400 mg, n = 6) | Treatment-emergent AE: Decreased appetite (phase 1, 400 mg, n = 6)
5 (55.6) n (%): Treatment-emergent AE: Diarrhea (phase 1, 200 mg, n = 9)
4 (66.7) n (%): Treatment-emergent AE: Nausea (phase 1, 400 mg, n = 6)
2 (22.2) n (%): Treatment-emergent AE: Dizziness (phase 1, 200 mg, n = 9) | Treatment-emergent AE: Insomnia (phase 1, 200 mg, n = 9) | Treatment-emergent AE: Nausea (phase 1, 200 mg, n = 9) | Treatment-emergent AE: Pyrexia (phase 1, 200 mg, n = 9) | Treatment-emergent AE: Upper respiratory tract infection (phase 1, 200 mg, n = 9)
4 (44.4) n (%): Treatment-emergent AE: Vomiting (phase 1, 200 mg, n = 9)
3 (33.3) n (%): Treatment-emergent AE: Fatigue (phase 1, 200 mg, n = 9)
6 (100.0) n (%): Treatment-emergent AE: Any AE (phase 1, 300 mg, n = 6) | Treatment-emergent AE: Any AE (phase 1, 400 mg, n = 6) | Treatment-emergent AE: Diarrhea (phase 1, 400 mg, n = 6)
1 (16.7) n (%): Treatment-emergent AE: Abdominal distension (phase 1, 300 mg, n = 6) | Treatment-emergent AE: Abdominal pain (phase 1, 300 mg, n = 6) | Treatment-emergent AE: Anemia (phase 1, 300 mg, n = 6) | Treatment-emergent AE: Back pain (phase 1, 300 mg, n = 6) | Treatment-emergent AE: Constipation (phase 1, 300 mg, n = 6) | Treatment-emergent AE: Cough (phase 1, 300 mg, n = 6) | Treatment-emergent AE: Dizziness (phase 1, 300 mg, n = 6) | Treatment-emergent AE: Hyperbilirubinemia (phase 1, 300 mg, n = 6) | Treatment-emergent AE: Insomnia (phase 1, 300 mg, n = 6) | Treatment-emergent AE: Neutropenia (phase 1, 300 mg, n = 6) | Treatment-emergent AE: Pain in extremity (phase 1, 300 mg, n = 6) | Treatment-emergent AE: Pyrexia (phase 1, 300 mg, n = 6) | Treatment-emergent AE: Thrombocytopenia (phase 1, 300 mg, n = 6) | Treatment-emergent AE: Upper respiratory tract infection (phase 1, 300 mg, n = 6) | Treatment-emergent AE: Cardiac murmur (phase 1, 400 mg, n = 6) | Treatment-emergent AE: Chills (phase 1, 400 mg, n = 6) | Treatment-emergent AE: Cough (phase 1, 400 mg, n = 6) | Treatment-emergent AE: Dizziness (phase 1, 400 mg, n = 6) | Treatment-emergent AE: Epistaxis (phase 1, 400 mg, n = 6) | Treatment-emergent AE: Hyperbilirubinemia (phase 1, 400 mg, n = 6) | Treatment-emergent AE: Insomnia (phase 1, 400 mg, n = 6) | Treatment-emergent AE: Neutropenia (phase 1, 400 mg, n = 6)
1 (11.1) n (%): Treatment-emergent AE: Edema peripheral (phase 1, 200 mg, n = 9) | Treatment-emergent AE: Epistaxis (phase 1, 200 mg, n = 9) | Treatment-emergent AE: Hyperbilirubinemia (phase 1, 200 mg, n = 9) | Treatment-emergent AE: Night sweats (phase 1, 200 mg, n = 9) | Treatment-emergent AE: Skin lesion (phase 1, 200 mg, n = 9)
